Test results as given in patent publication US8906829B2, “Synergistic algicidal compositions including hydrazone derivatives and copper” (Dow AgroSciences LLC, priority 2010, dated 2014).

Key:
[1] = system: Synechocystis sp. strain 6803; test: Growth inhibition of Synechocystis by hydrazones and isolated metal-hydrazone complexes, BG-11 Cu minus medium (Example 12); format: cell-based; conditions: for inhibition of growth at 0.05 µg/mL / Complex % Inhn.: Test Concn. 0.05 μg/ml
Description: In vitro toxicity assays against the cyanobacterium (blue-green alga) Synechocystis sp. strain 6803 were conducted using BG-11 medium except that copper micronutrient, normally included as CuSO4.5H2O, was omitted. The medium, termed BG-11 Cu minus, was prepared by dissolving 1.5 g NaNO3, 40 mg K2HPO4, 6 mg citric acid, 1 mg Na2EDTA and 20 mg Na2CO3 in 1 liter of milli Q water and treating the solution with 0.5 g Chelex 100 resin (Bio-Rad Analytical grade, 50-100 mesh, sodium form, cat#142-2822) by stifling at room temperature for 1 h. 900 mL were decanted and 67.5 mg MgSO4.7H2O, 32.4 mg […], 5.4 mg ferric ammonium citrate and 0.9 mL trace metal mix A5 without copper (2.86 g H3BO3, 1.81 g MnCl2.4H2O, 222 mg ZnSO4.7H2O, 390 mg Na2MoO4.2H2O and Co(NO3)2.6H2O in 1 L Milli Q water) was added. The pH was adjusted to 7.1 and the medium was filter-sterilized. Medium containing copper (BG-11 Cu plus) was prepared by adding CuCl2.2H2O to the BG-11 Cu minus medium at 0.2 μM. Test compounds were dissolved in dimethylsulfoxide (DMSO) at 2 mg/mL then appropriate dilutions in BG-11 Cu minus and BG-11 Cu plus media were prepared in sterilized microcentrifuge tubes. 100 μL aliquots were dispensed into flat-bottomed 96-well microtiter plates. Synechocystis was maintained under 24 h of light on BG-11 agar plates at 27° C. A loopful of cells was added to 50 mL of BG-11 Cu minus growth medium and the culture was incubated with shaking at 200 rpm at 27° C. for 24 h. The culture (10 to 20 mL aliquot) was centrifuged in a bench centrifuge at 2400 rpm for 2 min. The resulting cell pellet was resuspended in 5 mL sterile milli Q water (which had been treated with Chelex 100 resin using 0.5 g resin per liter of water by stirring at room temperature for 1 h), and recentrifuged. The cells were resuspended in BG-11 Cu minus medium, and the suspension adjusted to 4×10^5 spores per mL. Microtiter plates containing compounds as described above were inoculated with 100 μL of this cell suspension and the plates incubated at 27° C. for 72 h before assessing algal growth by measuring light scattering in a NepheloStar plate reader. Growth inhibition was determined by comparing growth in the presence of test compound with growth in control wells lacking test compound. Hydrazones and their isolated metal complexes were compared with respect to their in vitro activity toward C. reinhardtii and the cyanobacterium (blue-green alga) Synechocystis sp. strain 6803. Metal complexes of hydrazones were prepared by precipitation from ethanol with various metal salts at 1:1, 2:1 or 3:1 molar ratios, as described in general by Ainscough, Brodie, Dobbs, Ranford, and Waters (Inorganica Chimica Acta 1998, 267, 27-38, which is expressly incorporated by reference herein). In vitro assays against Synechocystis were conducted as described in Example 11 using BG-11 Cu minus medium. Growth inhibition was determined by comparing growth in the presence of test compound with growth in control wells lacking test compound.

[2] = system: C. reinhardtii; test: Growth inhibition of C. reinhardtii by hydrazones and isolated metal-hydrazone complexes, TAP Cu minus medium (Example 12); format: cell-based, Chlamydomonas reinhardtii; conditions: for inhibition of growth at 1 µg/mL: Chlamydomonas reinhardtii, parent hydrazone 1 μg/mL, read-out: Hydrazone % Inhn.; for Complex % Inhn.: isolated metal complex 1 μg/mL
Description: In vitro toxicity assays against C. reinhardtii CC-1928 (wild type mt+137c green in dark subclone) obtained from the Chlamydomonas Resource Center at Duke University were conducted using TAP liquid growth medium described by Gorman and Levine Proc. Natl. Acad. Sci. USA 1965, 54, 1665-1669 except that CuSO4.5H2O, normally included as a component of Hutner's trace element stock solution (Hutner et al. Proc. Am. Philos. Soc. 1950, 94, 152-170), was omitted. The TAP medium lacking Cu (TAP Cu minus) was prepared by adding 400 mg NH4Cl, 10 mL of 100× Tris-Acetate (242 g Tris-base and 100 mL glacial acetic acid in 1000 mL milli Q water), and 8.3 mL of 120.5× phosphate buffer (14.34 g K2HPO4 and 7.26 g KH2PO4 in 1000 mL milli Q water) to milli Q water to make a total volume of 1 liter. The medium was treated with 0.5 g Chelex 100 resin (Bio-Rad Analytical grade, 50-100 mesh, sodium form, cat#142-2822) by stirring at room temperature for 1 hour. 900 mL were decanted and 45.9 mg of CaCl2.2H2O, 90 mg of MgSO4.7H2O and 0.9 mL Hutner's trace elements lacking CuSO4.5H2O were added and the solution was filter-sterilized. Medium containing copper (TAP Cu plus) was prepared by adding CuCl2.2H2O to the TAP Cu minus medium at 20 μM. Test compounds were dissolved in dimethylsulfoxide (DMSO) at 2 mg/mL then dilutions in TAP Cu minus and TAP Cu plus media were prepared in sterilized microcentrifuge tubes at 2 μg/mL. 100 μL aliquots of diluted compound were dispensed into flat-bottomed 96-well microtiter plates. C. reinhardtii was maintained under 12 h of light on TAP agar plates at 18° C. A loopful of cells was added to 50 mL of TAP Cu minus medium and the culture incubated with shaking at 200 rpm at 27° C. for 24 h. The culture (10 to 20 mL aliquot) was centrifuged in a bench centrifuge at 2000 rpm for 2 min. The resulting cell pellet was resuspended in 5 mL sterile milli Q water (which had been treated with Chelex 100 resin using 0.5 g resin per liter of water by stirring at room temperature for 1 h), and recentrifuged. The cells were resuspended in TAP Cu minus medium, and the suspension adjusted to 2×10^5 spores per mL. Microtiter plates containing compounds as described above were inoculated with 100 μL of this cell suspension and the plates incubated at 27° C. for 48 h before assessing algal growth by measuring light scattering in a NepheloStar plate-reader. Growth inhibition was determined by comparing growth in the presence of test compound with growth in control wells lacking test compound. Hydrazones and their isolated metal complexes were compared with respect to their in vitro activity toward C. reinhardtii and the cyanobacterium (blue-green alga) Synechocystis sp. strain 6803. Metal complexes of hydrazones were prepared by precipitation from ethanol with various metal salts at 1:1, 2:1 or 3:1 molar ratios, as described in general by Ainscough, Brodie, Dobbs, Ranford, and Waters (Inorganica Chimica Acta 1998, 267, 27-38, which is expressly incorporated by reference herein). In vitro assays against C. reinhardtii were conducted as described in Example 10 using TAP Cu minus medium. Growth inhibition was determined by comparing growth in the presence of test compound with growth in control wells lacking test compound. Results for growth inhibition of C. reinhardtii by hydrazones and corresponding isolated metal complexes (each at 1 μg/mL) are shown in Table 6.

[3] = Synechocystis, read-out: Hydrazone % Inhn.

O=C(N/N=C/c1cc(Cl)cc(Cl)c1O)c1ccccc1 [Compound 1]
inhibition of growth at 0.05 µg/mL [1, 3]: 35% | inhibition of growth at 1 µg/mL [2]: 16%

C/C(=N\NC(=O)c1ccccc1)c1cc(Cl)cc(Cl)c1O [Compound 6]
inhibition of growth at 0.025 µg/mL ([1]; Synechocystis, Test Concn. 0.025 μg/ml, read-out: Hydrazone % Inhn.): 70% | inhibition of growth at 1 µg/mL [2]: 13%

O=C(N/N=C/c1cc(Cl)cc(Cl)c1O)c1ccccc1O [Compound 7]
inhibition of growth at 0.0125 µg/mL ([1]; Synechocystis, Test Concn. 0.0125 μg/ml, read-out: Hydrazone % Inhn.): 62% | inhibition of growth at 1 µg/mL [2]: 29%

C/C(=N\NC(=O)c1ccc(Cl)cc1)c1cc(Cl)cc(Cl)c1O [Compound 12]
inhibition of growth at 1 µg/mL [2]: 4%

O=C(N/N=C/c1cc(Cl)cc(Br)c1O)c1ccccc1 [Compound 14]
inhibition of growth at 1 µg/mL [2]: 6%

O=C(N/N=C/c1cc(Cl)cc(Br)c1O)c1ccc(Cl)cc1 [Compound 15]
inhibition of growth at 1 µg/mL [2]: 11%

O=C(N/N=C/c1cc(Cl)cc(Br)c1O)c1ccccc1O [Compound 18]
inhibition of growth at 1 µg/mL [2]: 13%

O=C(N/N=C/c1ccc(Cl)c(Cl)c1O)c1ccccc1 [Compound 21]
inhibition of growth at 1 µg/mL [2]: 6%

C/C(=N\NC(=O)c1cccc(C)c1)c1cc(Cl)cc(Cl)c1O [Compound 25, 3-methyl-benzoic acid [1-(3,5-dichloro-2-hydroxyphenyl)-ethylidene]-hydrazide]
inhibition of growth at 1 µg/mL [2]: 33%

C/C(=N\NC(=O)c1ccc(C)cc1)c1cc(Cl)cc(Cl)c1O [Compound 26]
inhibition of growth at 0.05 µg/mL [1, 3]: 50%

O=C(N/N=C/c1cc(Cl)cc(C(F)(F)F)c1O)c1ccccc1 [Compound 27]
inhibition of growth at 0.05 µg/mL [1, 3]: 41% | inhibition of growth at 1 µg/mL [2]: 30%

O=C(N/N=C/c1cc(C(F)(F)F)cc(C(F)(F)F)c1O)c1ccc(Cl)cc1 [Compound 32]
inhibition of growth at 0.05 µg/mL [1, 3]: 68% | inhibition of growth at 1 µg/mL [2]: 21%

O=C(N/N=C/c1c(Cl)ccc(Cl)c1O)c1ccc(Cl)cc1 [Compound 45]
inhibition of growth at 1 µg/mL [2]: 9%

O=C(N/N=C/c1cccc(Cl)c1O)c1ccc(Cl)cc1 [Compound 52]
inhibition of growth at 0.05 µg/mL [1, 3]: 45% | inhibition of growth at 1 µg/mL [2]: -4%

O=C(N/N=C/c1c(C(F)(F)F)ccc(Cl)c1O)c1ccc(Cl)cc1 [Compound 56]
inhibition of growth at 1 µg/mL [2]: 11%

Cc1ccccc1C(=O)N/N=C/c1cc(Cl)cc(Cl)c1O [Compound 63]
inhibition of growth at 0.05 µg/mL [1, 3]: 23% | inhibition of growth at 1 µg/mL [2]: -18%

CC(=O)[O-].CC(=O)[O-].O=C(N/N=C/c1cc(Cl)cc(Cl)c1O)c1ccccc1.[Cu+2] [Compound 72]
Complex % Inhn. [1]: 98% | Complex % Inhn. [2]: 96%

CC(=O)[O-].CC(=O)[O-].O=C(N/N=C/c1cc(Cl)cc(Cl)c1O)c1ccccc1.O=C(N/N=C/c1cc(Cl)cc(Cl)c1O)c1ccccc1.[Cu+2] [Compound 73]
Complex % Inhn. [1]: 97% | Complex % Inhn. [2]: 96%

O=C(N/N=C/c1cc(Cl)cc(Cl)c1O)c1ccccc1.O=C(N/N=C/c1cc(Cl)cc(Cl)c1O)c1ccccc1.O=S(=O)([O-])[O-].[Cu+2] [Compound 74]
Complex % Inhn. [1]: 95% | Complex % Inhn. [2]: 96%

O=C(N/N=C/c1cc(Cl)cc(Cl)c1O)c1ccccc1.[Cl-].[Cl-].[Cu+2] [Compound 75]
Complex % Inhn. [1]: 97% | Complex % Inhn. [2]: 95%

O=C(N/N=C/c1cc(Cl)cc(Cl)c1O)c1ccccc1.O=C(N/N=C/c1cc(Cl)cc(Cl)c1O)c1ccccc1.[Cl-].[Cl-].[Cu+2] [Compound 76]
Complex % Inhn. [1]: 96% | Complex % Inhn. [2]: 75%

O=C(N/N=C/c1cc(Cl)cc(Cl)c1O)c1ccccc1.O=C(N/N=C/c1cc(Cl)cc(Cl)c1O)c1ccccc1.[Cl-].[Cl-].[Mn+2] [Compound 77]
Complex % Inhn. [1]: 35% | Complex % Inhn. [2]: −1%

O=C(NN=Cc1cc(Cl)cc(Cl)c1O)c1ccccc1.O=C(NN=Cc1cc(Cl)cc(Cl)c1O)c1ccccc1.[Cl-].[Cl-].[Zn+2] [Compound 78]
Complex % Inhn. [1]: 59% | Complex % Inhn. [2]: −5%
